{"source": "EPA's ToxValDB 9.5 (doi:10.2903/j.efsa.2010.1857)", "key": {"Colinus virginianus": {"system": "Colinus virginianus", "details": "for LC50: diet"}, "Anas platyrhynchos": {"system": "Anas platyrhynchos", "details": "acute; oral; unspecified; mortality"}, "Rattus norvegicus": {"system": "Rattus norvegicus", "details": "for NOAEL: histopathology: nonneoplastic"}, "Daphnia magna": {"system": "Daphnia magna", "details": "chronic/long-term; duration: 17 days; reproduction"}, "Cyprinus carpio": {"system": "Cyprinus carpio", "details": "chronic/long-term; duration: 21 days; growth"}, "Oncorhynchus mykiss": {"system": "Oncorhynchus mykiss", "details": "acute; duration: 96 hours; mortality"}, "Poecilus cupreus": {"system": "Poecilus cupreus", "details": "not reported; morphology"}, "Apis mellifera": {"system": "Apis mellifera", "details": "acute; duration: 48 hours; oral; unspecified; mortality"}}, "data": [{"molecule": "CC1=C(C(=O)Nc2ccccc2)S(=O)(=O)CCO1", "note": "[Oxycarboxin]", "values": [{"measurement": "LC50", "setting": "Colinus virginianus; acute, oral, mortality", "value": "> 2200", "unit": "mg/kg-day"}, {"measurement": "LD50", "setting": "Anas platyrhynchos", "value": 1250, "unit": "mg/kg-day"}]}, {"molecule": "CC1=C(C(=O)Nc2ccccc2)SCCO1", "note": "[Carboxin]", "values": [{"measurement": "LC50", "setting": "Colinus virginianus; acute, oral, mortality", "value": "> 985", "unit": "mg/kg-day"}, {"measurement": "LD50", "setting": "Colinus virginianus; acute, oral, mortality", "value": "> 2150", "unit": "mg/kg-day"}, {"measurement": "NOEC", "setting": "Colinus virginianus; reproduction developmental", "value": 83, "unit": "mg/kg-day"}, {"measurement": "LD50", "setting": "Rattus norvegicus; acute, oral, mortality", "value": 2590, "unit": "mg/kg-day"}, {"measurement": "NOAEL", "setting": "Rattus norvegicus; chronic, duration: 2 years, M", "value": 0.82, "unit": "mg/kg-day"}, {"measurement": "NOEL", "setting": "Rattus norvegicus; reproduction developmental, reproduction", "value": 20, "unit": "mg/kg-day"}, {"measurement": "NOAEL", "setting": "Rattus norvegicus; subchronic, duration: 90 days, oral", "value": 5.5, "unit": "mg/kg-day"}, {"measurement": "NOEC", "setting": "Daphnia magna", "value": 0.32, "unit": "mg/L"}, {"measurement": "NOEC", "setting": "Cyprinus carpio", "value": 0.32, "unit": "mg/L"}, {"measurement": "LC50", "setting": "Oncorhynchus mykiss", "value": 2.3, "unit": "µg/mL"}, {"measurement": "LEL", "setting": "Poecilus cupreus", "value": 776, "unit": "mg/kg"}, {"measurement": "LC50", "setting": "Tagia sp.; acute, duration: 14 days, mortality", "value": "> 500", "unit": "mg/kg"}, {"measurement": "NOEC", "setting": "Tagia sp.; chronic/long-term, duration: 56 days", "value": 100, "unit": "mg/kg"}, {"measurement": "LD50", "setting": "Apis mellifera", "value": "> 100", "unit": "µg/piece"}]}]}
